Assay results: PMC8815882, “Screening the pandemic response box identified benzimidazole carbamates, Olorofim and ravuconazole as promising drug candidates for the treatment of eumycetoma” (PLoS Neglected Tropical Diseases, 2022)
Where two headings read alike, the source gives them in different places.

Tested on: M. mycetomatis genome strain MM55
Assay: CLSI M38-A2 based in vitro susceptibility screening (XTT or resazurin), growth at fixed concentration
Type: cell-based, Madurella mycetomatis
Details: Madurella mycetomatis
[1] = 25 uM, replicate A, read-out: Percentage survival at 25um, 25 um A
[2] = 25 uM, replicate B, read-out: Percentage survival at 25um, 25 uM B
[3] = 25 uM, replicate C, read-out: Percentage survival at 25um, 25 uM C
[4] = 25 uM, mean of replicates, MM55, read-out: Percentage survival at 25um, 25 uM mean
[5] = 25 uM, replicate A, MM55, read-out: Percentage survival at 25um, 25 um A
[6] = 25 uM, replicate B, MM55, read-out: Percentage survival at 25um, 25 uM B
[7] = 25 uM, replicate C, MM55, read-out: Percentage survival at 25um, 25 uM C
[8] = 100 uM, mean of replicates, MM55, read-out: Percentage survival at 100um, 100 uM mean
[9] = 100 uM, replicate 1, MM55, read-out: Percentage survival at 100um, 100 uM A
[10] = 100 uM, replicate 2, MM55, read-out: Percentage survival at 100um, 100 uM A
[11] = 100 uM, replicate 3, MM55, read-out: Percentage survival at 100um, 100 uM A
[12] = 25 uM, mean of three replicates, read-out: Percentage survival at 25um, 25 uM mean
[13] = 100 uM, first replicate column, read-out: Percentage survival at 100um, 100 uM A
[14] = 100 uM, mean of three replicates, read-out: Percentage survival at 100um, 100 uM mean
[15] = 100 uM, second replicate column, read-out: Percentage survival at 100um, 100 uM A
[16] = 100 uM, third replicate column, read-out: Percentage survival at 100um, 100 uM A

SMILES | activity at 25 µM [1] [%] | activity at 25 µM [2] [%] | activity at 25 µM [3] [%] | activity at 25 µM [4] [%] | activity at 25 µM [5] [%] | activity at 25 µM [6] [%] | activity at 25 µM [7] [%] | activity at 100 µM [8] [%] | activity at 100 µM [9] [%] | activity at 100 µM [10] [%] | activity at 100 µM [11] [%] | activity at 25 µM [12] [%] | activity at 100 µM [14] [%] | further results
CC1CCc2c(N3CCC(O)CC3)c(F)cc3c(=O)c(C(=O)O)cn1c23 (centres unmarked) [MMV637659] | 77.6 | 95.3 | 93 | – | – | – | – | – | – | – | – | – | – | activity at 25 µM (25 uM, mean of replicates, read-out: Percentage survival at 25um, 25 uM mean): 88.6%; activity at 100 µM (100 uM, mean of replicates, read-out: Percentage survival at 100um, 100 uM mean): 77.8%; activity at 100 µM (100 uM, replicate 1, read-out: Percentage survival at 100um, 100 uM A): 65.4%; activity at 100 µM (100 uM, replicate 2, read-out: Percentage survival at 100um, 100 uM A): 81.1%; activity at 100 µM (100 uM, replicate 3, read-out: Percentage survival at 100um, 100 uM A): 86.9%
CC(N)C12CC3CC(CC(C3)C1)C2 (centres unmarked) [MMV637855] | – | – | – | 86 | 78.5 | 82.6 | 96.9 | 60.7 | 60.1 | 57.9 | 64 | – | – | –
CC(C)(C)NC(=O)[C@@H]1C[C@@H]2CCCC[C@@H]2CN1C[C@@H](O)[C@H](Cc1ccccc1)NC(=O)[C@H](CC(N)=O)NC(=O)c1ccc2ccccc2n1 [MMV637879] | 98.2 | 97.6 | 81.5 | – | – | – | – | – | – | – | – | 92.5 | 93.3 | activity at 100 µM [13]: 102%; activity at 100 µM [15]: 95.3%; activity at 100 µM [16]: 82.8%
CC1(C)[C@H](C(=O)O)N2C(=O)C[C@H]2S1(=O)=O [MMV637945] | – | – | – | – | – | – | – | – | – | – | – | – | – | activity at 25 µM (25 uM, replicate A, M. mycetomatis MM55, read-out: Percentage survival at 25um, 25 um A): 97.1%; activity at 100 µM (100 uM, mean of three, M. mycetomatis MM55, read-out: Percentage survival at 100um, 100 uM mean): 98.9%; activity at 100 µM (100 uM, replicate 1, M. mycetomatis MM55, read-out: Percentage survival at 100um, 100 uM A (first replicate column)): 99.5%; activity at 100 µM (100 uM, replicate 2, M. mycetomatis MM55, read-out: Percentage survival at 100um, 100 uM A (second replicate column)): 112%; activity at 100 µM (100 uM, replicate 3, M. mycetomatis MM55, read-out: Percentage survival at 100um, 100 uM A (third replicate column)): 85.4%; activity at 25 µM (read-out: Percentage survival at 25um, 25 uM B): 95.1%; activity at 25 µM (read-out: Percentage survival at 25um, 25 uM C): 84.6%; activity at 25 µM (read-out: Percentage survival at 25um, 25 uM mean): 92.3%
C=C(C)[C@@H]1CC[C@]2(C(=O)O)CC[C@]3(C)[C@H](CC[C@@H]4[C@@]5(C)CC[C@H](O)C(C)(C)[C@@H]5CC[C@]43C)[C@@H]12 [MMV638198] | – | – | – | 78.4 | 65.7 | 92.3 | 77.1 | 79.4 | 83.2 | 80.2 | 74.7 | – | – | –
COC1CC2CCC(C)C(O)(O2)C(=O)C(=O)N2CCCCC2C(=O)OC(C(C)CC2CCC(OCCO)C(OC)C2)CC(=O)C(C)/C=C(\C)C(O)C(OC)C(=O)C(C)CC(C)/C=C/C=C/C=C/1C (centres unmarked) [MMV639951] | 64.2 | 62.2 | 57.7 | – | – | – | – | – | – | – | – | 61.4 | 51.7 | activity at 100 µM [13]: 69.2%; activity at 100 µM [15]: 46.7%; activity at 100 µM [16]: 39.4%
O=C(O)c1ccc(-n2nc(-c3ccccc3O)nc2-c2ccccc2O)cc1 [MMV640014] | 94.6 | 88.3 | 78 | – | – | – | – | – | – | – | – | – | – | activity at 25 µM (25 uM, mean, read-out: Percentage survival at 25um, 25 uM mean): 87%; activity at 100 µM (100 uM, mean, read-out: Percentage survival at 100um, 100 uM mean): 78.4%; activity at 100 µM (100 uM, replicate (first column), read-out: Percentage survival at 100um, 100 uM A): 85.5%; activity at 100 µM (100 uM, replicate (second column), read-out: Percentage survival at 100um, 100 uM A): 73.2%; activity at 100 µM (100 uM, replicate (third column), read-out: Percentage survival at 100um, 100 uM A): 76.5%
Cn1cncc1[C@@](N)(c1ccc(Cl)cc1)c1ccc2c(c1)c(-c1cccc(Cl)c1)cc(=O)n2C [MMV658803] | – | – | – | 43.8 | 0.79 | 64.2 | 66.2 | 36.3 | 13.3 | 45 | 50.7 | – | – | –
CCc1nc2ccc(Cl)cn2c1C(=O)NCc1ccc(N2CCC(c3ccc(OC(F)(F)F)cc3)CC2)cc1 [MMV687696] | 95 | 93.8 | 91.9 | – | – | – | – | – | – | – | – | 93.6 | 84.8 | activity at 100 µM (100 uM, replicate 1, read-out: Percentage survival at 100um, 100 uM A (first replicate column)): 87.8%; Percent fungal survival at 100 µM (100 uM, replicate 2, read-out: Percentage survival at 100um, 100 uM A (second replicate column)): 86.4%; activity at 100 µM (100 uM, replicate 3, read-out: Percentage survival at 100um, 100 uM A (third replicate column)): 80.3%
C[C@H]1COc2c(N3CCN(C)CC3)c(F)cc3c(=O)c(C(=O)O)cn1c23 [MMV687798] | – | – | – | 96.2 | 101 | 105 | 82.9 | 91.4 | 97.4 | 91.1 | 85.7 | – | – | –
